Measurements taken from patent US20160346249A1 (priority 2012, published 2016).

Tests used:
human recombinant MAO-B = target: T1, human recombinant MAO-B (Homo sapiens, UniProt P27338); test: Metabolism by recombinant MAO-B; format: in vitro ADME
T1 construct: purchased BD Biosciences, Woburn, Mass
T1 sequence (P27338 1-520): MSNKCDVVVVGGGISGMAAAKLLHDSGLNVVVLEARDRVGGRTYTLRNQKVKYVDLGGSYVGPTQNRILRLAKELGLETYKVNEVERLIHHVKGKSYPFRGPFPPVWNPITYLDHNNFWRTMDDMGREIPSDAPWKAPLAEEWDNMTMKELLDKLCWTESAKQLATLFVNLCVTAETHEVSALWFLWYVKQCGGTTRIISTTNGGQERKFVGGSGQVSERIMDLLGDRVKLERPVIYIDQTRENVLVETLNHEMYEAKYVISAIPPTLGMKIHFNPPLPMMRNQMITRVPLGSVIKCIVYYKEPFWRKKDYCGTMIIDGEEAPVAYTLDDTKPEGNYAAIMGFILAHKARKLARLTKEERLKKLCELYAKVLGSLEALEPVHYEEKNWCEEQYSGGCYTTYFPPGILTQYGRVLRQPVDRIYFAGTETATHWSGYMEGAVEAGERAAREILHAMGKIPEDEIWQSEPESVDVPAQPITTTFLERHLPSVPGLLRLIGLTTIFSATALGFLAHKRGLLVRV
Method: Incubation systems (ca. 0.2 mL) of human recombinant MAO-A (1.0 mg/mL) and MAO-B (1.0 mg/mL) (BD Biosciences, Woburn, Mass.) were prepared in triplicated 0.1 M potassium phosphate buffer (pH 7.4) (BD Biosciences, Woburn, Mass.). […] The negative samples were prepared as described above, with the exception that instead of HLM, HLmito, or recombinant enzymes, water was added to the incubation mixture.

[1] = 13-week dog toxicity and toxicokinetic study; format: in vivo; details: for AUC(0-t) / Cmax / Tmax: beagle, dog, in vivo; for AUC(0-t): read-out: AUC0-24; for body weight gain during the study: 20 mg/kg; for mean body weight lower than control: end of study
Method: […] For toxicology assessment, clinical observations, body weight, and food consumption measures were recorded periodically during the study. Ophthalmic examinations were performed and ECGs recorded during Weeks −1 and 12. Clinical pathology evaluations (hematology, serum chemistry, and urinalysis) were performed prior to the initiation of dose administration (Week −1) and prior to the scheduled necropsy (Week 13). At termination, complete necropsies were performed on all dogs and selected organs were weighed. Selected tissues from the control and 20 mg/kg/day group animals and animals euthanized in extremis were examined microscopically. Gross lesions from the 2 and 6 mg/kg/day groups were also examined.

[2] = Rat pilot developmental toxicity study
Method: Clinical observations, body weights, and food consumption were recorded periodically. On GD 20, a laparohysterectomy was performed on each surviving female. The uteri, placentas, and ovaries were examined; gravid uterine weights, the numbers of fetuses, early and late resorptions, total implantations, and corpora lutea were recorded. The fetuses were weighed, sexed, and examined for external malformations and developmental variations.

[3] = Rabbit developmental toxicity study with toxicokinetics; details: female, New Zealand white, in vivo; for AUC(0-t) / Cmax / Tmax: pregnant rabbits; for AUC(0-t): GD 20, read-out: AUC0-24; for Cmax / Tmax: GD 20
Method: For the toxicology assessment, 27-33 per rabbits per group were dosed.
On GD 29, a laparohysterectomy was performed on each surviving female.

[4] = Rat CNS study (functional observational battery, locomotor activity); details: Crl:CD(SD)IGS BR, in vivo; for mean rearing counts lower than control, 2-minute open field: po; for mean rearing counts lower than control, 2-minute open field / mean urination values higher than control: 1 h
Method: There were eight animals of each gender per group. Functional observational battery (FOB) assessments and automated 1-hour locomotor activity data were recorded for all animals 7 days prior to dose administration (pre-test), and again beginning 1 hour following dosing on Day 0. Following completion of the FOB and locomotor activity evaluations, all animals were euthanized and discarded.

[5] = Single-dose (25 mg) gender study in males and females (DOV-947-005); format: in vivo, human; details: for AUC(0-inf) / AUC(0-t) / Cmax / Tmax / half-life: human, in vivo, single oral dose 25 mg
[6] = 14-day mouse toxicity and toxicokinetic study; details: both, Crl:CD-1(ICR) BR, in vivo, po
[7] = female, po, 2 mg/kg/day, females, 2 mg/kg/day, Day 0
[8] = female, po, 2 mg/kg/day, females, 2 mg/kg/day, Day 86
[9] = female, po, 6 mg/kg/day, females, 6 mg/kg/day, Day 0
[10] = female, po, 6 mg/kg/day, females, 6 mg/kg/day, Day 86
[11] = female, po, 20 mg/kg/day, females, 20 mg/kg/day, Day 0
[12] = female, po, 20 mg/kg/day, females, 20 mg/kg/day, Day 86
[13] = male, po, 2 mg/kg/day, males, 2 mg/kg/day, Day 0
[14] = male, po, 2 mg/kg/day, males, 2 mg/kg/day, Day 86
[15] = male, po, 6 mg/kg/day, males, 6 mg/kg/day, Day 0
[16] = male, po, 6 mg/kg/day, males, 6 mg/kg/day, Day 86
[17] = male, po, 20 mg/kg/day, males, 20 mg/kg/day, Day 0
[18] = male, po, 20 mg/kg/day, males, 20 mg/kg/day, Day 86

O=C1NCC2(c3ccc(Cl)c(Cl)c3)CC12 (stereo not drawn) [EB-10101, 5-(3,4-dichloro-phenyl)-3-aza-bicyclo[3.1.0]hexan-2-one]
MAO-B mediation of formation (human recombinant MAO-B): not MAO-B mediated

Clc1ccc([C@]23CNC[C@H]2C3)cc1Cl [amitifadine, (+)-1-(3,4-dichlorophenyl)-3-azabicyclo[3.1.0]hexane]
AUC(0-t) ([1]; female, oral, 6 mg/kg/day, females, 6 mg/kg/day, Day 86): 15900 ng·h/mL
Cmax [1, 7]: 635 ng/mL
Tmax [1, 7]: 1 h
AUC(0-t) [1, 7]: 1480 ng·h/mL
Cmax [1, 8]: 663 ng/mL
Tmax [1, 8]: 1 h
AUC(0-t) [1, 8]: 2150 ng·h/mL
Cmax [1, 9]: 5120 ng/mL
Tmax [1, 9]: 1 h
AUC(0-t) [1, 9]: 13600 ng·h/mL
Cmax [1, 10]: 4850 ng/mL
Tmax [1, 10]: 1 h
Cmax [1, 11]: 9280 ng/mL
Tmax [1, 11]: 2 h
AUC(0-t) [1, 11]: 63600 ng·h/mL
Cmax [1, 12]: 8430 ng/mL
Tmax [1, 12]: 1 h
AUC(0-t) [1, 12]: 29600 ng·h/mL
body weight gain during the study ([1]; females): 0.4 ± 0.79 kg
mean body weight lower than control ([1]; females, 20 mg/kg/day): 9%
AUC(0-t) ([1]; male, oral, 6 mg/kg/day, males, 6 mg/kg/day, Day 86): 13100 ng·h/mL
Cmax [1, 13]: 507 ng/mL
Tmax [1, 13]: 1 h
AUC(0-t) [1, 13]: 1570 ng·h/mL
Cmax [1, 14]: 753 ng/mL
Tmax [1, 14]: 1 h
AUC(0-t) [1, 14]: 2280 ng·h/mL
Cmax [1, 15]: 4640 ng/mL
Tmax [1, 15]: 1 h
AUC(0-t) [1, 15]: 12800 ng·h/mL
Cmax [1, 16]: 4140 ng/mL
Tmax [1, 16]: 1 h
Cmax [1, 17]: 11400 ng/mL
Tmax [1, 17]: 1 h
AUC(0-t) [1, 17]: 47800 ng·h/mL
Cmax [1, 18]: 7230 ng/mL
Tmax [1, 18]: 1 h
AUC(0-t) [1, 18]: 44000 ng·h/mL
body weight gain during the study ([1]; males): -0.3 ± 0.58 kg
food consumption less than control ([1]; males, 20 mg/kg/day): ≥ 10%
mean body weight lower than control ([1]; males, 20 mg/kg/day): 13%
mean fetal weight ([2]; 25 mg/kg/day): statistically significant reduction in mean fetal weight
maternal mortality ([2]; 50 mg/kg/day, GD 8, 9 or 10): all females in the 50 mg/kg/day group were euthanized in extremis
AUC(0-t) ([3]; oral, 20 mg/kg/day): 19200 ng·h/mL
NOAEL ([3]; po, oral gavage GD 7-20, read-out: NOAEL for developmental toxicity): 20 mg/kg/day
NOAEL ([3]; po, oral gavage GD 7-20, read-out: NOAEL for maternal toxicity): 10 mg/kg/day
Cmax ([3]; po, 3 mg/kg/day): 309 ng/mL
Tmax ([3]; po, 3 mg/kg/day): 1 h
AUC(0-t) ([3]; po, 3 mg/kg/day): 1320 ng·h/mL
Cmax ([3]; po, 10 mg/kg/day): 1090 ng/mL
Tmax ([3]; po, 10 mg/kg/day): 1 h
AUC(0-t) ([3]; po, 10 mg/kg/day): 5860 ng·h/mL
Cmax ([3]; po, 20 mg/kg/day): 3200 ng/mL
Tmax ([3]; po, 20 mg/kg/day): 1 h
NOAEL ([4]; both sexes, single oral gavage, read-out: NOAEL for CNS toxicity): 100 mg/kg
mean rearing counts lower than control, 2-minute open field ([4]; female, 30 mg/kg): 67.1%
mean rearing counts lower than control, 2-minute open field ([4]; female, 100 mg/kg): 78.6%
mean urination values higher than control ([4]; male, 10 mg/kg): approximately 3 fold
mean urination values higher than control ([4]; male, 30 mg/kg): approximately 3 fold
mean urination values higher than control ([4]; male, 100 mg/kg): ~5 fold
mean rearing counts lower than control, 2-minute open field ([4]; male, 100 mg/kg): 56.5%
QTc prolongation ([5]; 25 mg): no sustained or significant prolongation of QTc
gender difference in Cmax or AUC ([5]; 25 mg): no difference in either Cmax or AUC values between the two sexes
subjects with orthostatic hypotension ([5]; all subjects, 25 mg): 30%
AUC(0-inf) ([5]; female, Females (N = 38)): 1590 ng·h/mL
AUC(0-t) ([5]; female, Females (N = 38)): 1490 ng·h/mL
Cmax ([5]; female, Females (N = 38)): 291 ng/mL
Tmax ([5]; female, Females (N = 38)): 1.38 h
half-life ([5]; female, Females (N = 38)): 224 min
subjects with orthostatic hypotension ([5]; females, 25 mg): 28.9%
AUC(0-inf) ([5]; male, Males (N = 32)): 1440 ng·h/mL
AUC(0-t) ([5]; male, Males (N = 32)): 1360 ng·h/mL
Cmax ([5]; male, Males (N = 32)): 273 ng/mL
Tmax ([5]; male, Males (N = 32)): 1.27 h
half-life ([5]; male, Males (N = 32)): 205 min
subjects with orthostatic hypotension ([5]; males, 25 mg): 31.3%
NOAEL at 14 days [6]: 100 mg/kg/day
